Measured values reported in patent US20040127489A1, “Novel antipsychotic combination therapies and compositions useful therein” (priority 2002, published 2004).

Columns and labels:
[1] = idazoxan 120 mg/day added to 1000 mg chlorpromazine equivalents of fluphenazine; Litman et al. 1996; cited from earlier work
α2 autoreceptors = details: presynaptic; Martire et al. 1988; cited from earlier work
α2 adrenoreceptors = details: Martire et al. 1988; cited from earlier work
D2 receptor = D2 receptor (Homo sapiens, UniProt P14416); details: Merck Manual 17th Edition; cited from earlier work
Wistar rats = test: Conditioned avoidance response (CAR) behavior in rats; assay type: in vivo; details: rat CAR; adjunct treatment with idazoxan
Excerpt: Food and water were available ad libitum.
Rats were trained and tested in a conventional, manually operated two-way active avoidance (shuttlebox) apparatus connected to a high resistance power supply. The box was divided into two compartments of equal size by a partition with one opening. Upon presentation of the 80 dB white noise conditioned stimulus (CS), the animals had 10 seconds to move from one compartment of the shuttlebox into the other. If the rat remained in the same compartment for more than 10 seconds, an intermittent electric shock (approx. 0.2 mA of 0.5-sec duration; intershock interval 2.5 sec), the unconditioned stimulus (UCS), was presented in the grid floor until an escape was performed. […] Intertrial intervals varied at random between 20 and 40 seconds. The following variables were recorded: avoidance (response to CS within 10 sec); escape (response to CS+UCS); escape failures (failure to respond); and intertrial crosses. The animals were trained for 3 consecutive days. Training sessions were run over 15 minutes. A final test session (7.5 minutes) was performed on the day immediately prior to the first experimental day, and only animals performing at the 100% correct level were assigned to the experiment. Experimental manipulations were always preceded by a pretest. […]

[2] = test system: α2 adrenergic receptor versus dopamine D2 receptor; details: literature; cited from earlier work

Chain of D2 receptor (P14416 whole entry): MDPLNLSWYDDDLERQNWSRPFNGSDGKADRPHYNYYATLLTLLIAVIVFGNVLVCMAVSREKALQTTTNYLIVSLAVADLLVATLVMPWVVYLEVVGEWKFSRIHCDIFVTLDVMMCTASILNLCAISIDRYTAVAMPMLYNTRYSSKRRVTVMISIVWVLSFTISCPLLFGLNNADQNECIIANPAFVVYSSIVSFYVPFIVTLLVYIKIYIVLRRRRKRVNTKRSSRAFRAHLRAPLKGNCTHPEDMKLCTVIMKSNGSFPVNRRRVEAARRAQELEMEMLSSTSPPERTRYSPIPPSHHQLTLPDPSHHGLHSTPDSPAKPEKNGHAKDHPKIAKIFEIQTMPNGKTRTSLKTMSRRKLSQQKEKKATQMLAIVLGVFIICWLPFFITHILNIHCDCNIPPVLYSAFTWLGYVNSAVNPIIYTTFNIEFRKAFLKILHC

c1ccc2c(c1)OCC(C1=NCCN1)O2 (racemic) [idazoxan, ±-2-(1,4-benzodioxan-2-yl)-d-imidazoline]
clinical response [1]: adequate clinical responses

c1ccc2c(c1)OCC(C1=NCCN1)O2 (single isomer, unassigned; (+)) [(+)-idazoxan]
affinity towards the α2 autoreceptors relative to (−) idazoxan (α2 autoreceptors): 40 times
potency in inhibiting p-[3H]aminoclonidine binding relative to (−) idazoxan (α2 adrenoreceptors): 7-8 times

OCCN1CCN(CCCN2c3ccccc3Sc3ccc(C(F)(F)F)cc32)CC1 [fluophenazine, fluphenazine]
dose corresponding to 1000 mg chlorpromazine equivalents (D2 receptor): 20 mg

Cc1cc2c(s1)Nc1ccccc1N=C2N1CCN(C)CC1 [olanzapine]
reduction of the olanzapine dose required for an effective antipsychotic effect through adjunct idazoxan (Wistar rats): ~50%

OCCOCCN1CCN(C2=Nc3ccccc3Sc3ccccc32)CC1 [quetiapine]
dose corresponding to 1000 mg chlorpromazine equivalents (D2 receptor): 900 mg

O=C1NCCN1CCN1CCC(c2cn(-c3ccc(F)cc3)c3ccc(Cl)cc23)CC1 [sertindole]
dose corresponding to 1000 mg chlorpromazine equivalents (D2 receptor): 24 mg

O=C1Cc2cc(CCN3CCN(c4nsc5ccccc45)CC3)c(Cl)cc2N1 [ziprasidone]
fold less affinity for the α2 adrenergic receptor than for the dopamine D2 receptor [2]: 100 fold
